Where two headings read alike, the source gives them in different places. Values belong to the molecule of their own block, whether it stands above or below them.
Legend:
[1] = system: myeloproliferative neoplasm patient samples cultured ex vivo and myeloproliferative neoplasm-derived cell lines bearing the activating JAK-2 V617F mutation; settings: cited from earlier work
[2] = system: myeloproliferative neoplasm cells; endogenous erythroid colonies representing malignant PV clones; settings: cited from earlier work
[3] = system: platelets; experiment: exposure-platelet response model, parameter estimation (NONMEM); parameters: species or system human
Excerpt: The model was based on established models described in the literature (Kaefer, A., Yang, J., Noertersheuser, P. et al. Cancer Chemother Pharmacol (2014) 74: 593. doi:10.1007/s00280-014-2530-2530; and Friberg, Lena E., et al. “Model of chemotherapy-induced myelosuppression with parameter consistency across drugs. “Journal of clinical oncology 20.24 (2002): 4713-4721, both references hereby incorporated by reference in their entireties).
PK model for ruxolitinib was described by a two-compartment model with a lag-time in absorption (Equations 2a through 2c).
The time course of platelet response was modeled using a semi-physiological model that comprised a progenitor cell compartment, three transition compartments representing the maturation chain in the bone marrow and a peripheral blood compartment (see FIG. 2). A feedback system was used in this model to describe the increase in the maturation rate in bone marrow when the platelet level in the blood compartment is below baseline and decrease in the maturation rate when the platelet level in blood is above baseline. […] Equations 3 to 9 represent the PD model.
The model is initialized at 0 for the PK related compartments, at POOL for the PROLIF compartment, and at 1 for the maturation and circulation compartments. The platelet prediction is obtained by (Baseline Platelets)×PLT1×PLT2. The rates of the Platelet1 model are set to be the same ktrans=kin=kout due to a steady state assumption without treatment interference.
A factor was included on the baseline platelet count such that baseline(t=−84 days)=factor×baseline(t=0 days)
This yields a relative pseudo baseline at initiation of ruxolitinib (referred to as ‘ruxolitinib factor’ on baseline platelet count). […] The first 56 days of data were fitted to avoid influence of long-term disease effects on the model.
No inter-individual variability was estimated on ruxolitinib EC50 since limited data precluded its appropriate estimation.

[4] = system: subjects with primary or secondary myelofibrosis; experiment: Phase 2 study of navitoclax in combination with ruxolitinib (Example 1)
Excerpt: Treatment continued until the end of clinical benefit, unacceptable toxicity, or discontinuation. The primary efficacy endpoint was percentage reduction in splenic volume from baseline. Secondary endpoints included effect on total symptom score (TSS), overall response rate, rate of anemia response, improvement in bone marrow fibrosis, and safety profile.
For this study, inclusion criteria included the following: • 1. Subject must be ≥18 years of age. • 2. Subject has documented diagnosis of Intermediate or High-Risk Primary Myelofibrosis, Post-Polycythemia Vera Myelofibrosis (PPV-MF), or Post-Essential Thrombocythemia Myelofibrosis (PET-MF) as defined by the World Health Organization classification. • 3. Subject must be ineligible or unwilling to undergo stem cell transplantation at time of study entry. • 4. Subject must have an Eastern Cooperative Oncology Group (ECOG) Performance Score of 0, 1, or 2. • 5. […] Prior treatment with JAK-2 inhibitor for at least 12 weeks • b. Prior treatment with JAK-2 inhibitor for at least 28 days complicated by any of the following: • i. […] Splenic irradiation within 6 months prior to screening, or prior splenectomy. • 2. Leukemic transformation (>10% blasts in peripheral blood or bone marrow biopsy). • 3. Subject is currently on medications that interfere with coagulation (including warfarin) or platelet function with the exception of low dose aspirin (up to 100 mg) and low-molecular-weight heparin (LMWH). • 4. Prior therapy with a BH3 mimetic compound. • 5.
Subjects needed to have received ruxolitinib therapy for at least 12 weeks prior to study enrollment without interruption, have splenomegaly as defined by a spleen palpable ≥5 cm below costal margin and be currently on a stable dose of ≥10 mg BID of ruxolitinib.

[5] = 400 mg once daily ketoconazole; 10 subjects with cancer; cited from earlier work
[6] = system: resistance to JAK-2 inhibitors associated with BCL-XL elevation; settings: cited from earlier work
[7] = biological target: T1, BCL-W (Homo sapiens, UniProt Q92843); settings: cited from earlier work
T1 sequence (Q92843 1-193): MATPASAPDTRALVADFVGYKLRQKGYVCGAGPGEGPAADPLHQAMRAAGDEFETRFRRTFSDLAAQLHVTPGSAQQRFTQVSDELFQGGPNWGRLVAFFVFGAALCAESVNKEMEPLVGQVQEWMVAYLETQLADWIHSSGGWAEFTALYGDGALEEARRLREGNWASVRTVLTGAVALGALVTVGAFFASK

[8] = system: 22 cell lines consisting of multiple leukemia and lymphoma types spanning both B-cell and T-cell malignancies; settings: cited from earlier work
[9] = system: human tumor cell lines derived from small cell lung carcinomas and lymphoid malignancies; settings: read-out: EC50, mechanism-based cytotoxicity; cited from earlier work
[10] = co-administration of navitoclax with rifampin; assay type: in vivo, human; settings: 600 mg once daily rifampin for 4 days; 11 subjects with cancer
Excerpt: Increased dosage should be made with frequent monitoring of safety and efficacy.

[11] = system: platelets; settings: effect on platelets, cited from earlier work; for Ruxolitinib EC50: fixed to published value
[12] = system: spleen volume; experiment: exposure-spleen volume response model, parameter estimation (NONMEM); parameters: species or system human; settings: spleen volume inhibition; R/R MF, cohort 1a data
Excerpt: Spleen volume data up to only week 40 was used in the model to improve model predictability. […] Inter-individual variability with full correlation matrix was incorporated on estimated baseline spleen volume, kout, EC50NAV and EC50RUX using exponential function and the residual variability was characterized using combined proportional and additive error model.
At baseline, the rates of the spleen volume model are set to be the same kin=kout due to a theoretical steady state assumption without treatment interference. This leads to an initial condition for the SV compartment of 1, where SV predictions are derived by multiplying this compartment with baseline. Disease progression was included in the model with the factor “Eprog” on “kin”.

[13] = system: tumors in mice bearing the Eμ-TEL-JAK-2 transgene or PDX mice bearing JAK-2-mutated B-ALL cells; settings: cited from earlier work
[14] = system: spleen volume; settings: spleen volume inhibition, fixed to a published value, cited from earlier work
[15] = system: patients with intermediate or high-risk primary or secondary myelofibrosis; settings: ruxolitinib monotherapy; cited from earlier work
[16] = 22 subjects with ruxolitinib dose reduction

Structure (SMILES): CN(C)CC[C@H](CSc1ccccc1)Nc1ccc(S(=O)(=O)NC(=O)c2ccc(N3CCN(Cc4ccccc4-c4ccc(Cl)cc4)CC3)cc2)cc1[N+](=O)[O-] [ABT-737]
- cell killing activity [1]: cell killing activity
- endogenous erythroid colonies growing in the absence of erythropoietin ([2]; 500 nM ABT-737): significantly inhibited
- endogenous erythroid colonies growing in the absence of erythropoietin ([2]; 100-300 nM ABT-737 combined with a JAK-2 inhibitor): further suppressed
- proliferation of myeloproliferative neoplasm cells [2]: ability to block the proliferation

Structure (SMILES): CC1(C)CCC(c2ccc(Cl)cc2)=C(CN2CCN(c3ccc(C(=O)NS(=O)(=O)c4ccc(N[C@H](CCN5CCOCC5)CSc5ccccc5)c(S(=O)(=O)C(F)(F)F)c4)cc3)CC2)C1 [Navitoclax, 4-(4-{[2-(4-chlorophenyl)-5,5-dimethyl-1-cyclohexen-1-yl]methyl}-1-piperazinyl)-N-[(4-{[(2R)-4-(4-morpholinyl)-1-(phenylsulfanyl)-2-butanyl]amino}-3-[(trifluoromethyl)sulfonyl]phenyl)sulfonyl]benzamide]
- Navitoclax EC50, estimate and 95% confidence interval ([3]; effect on platelets, fitted to data of 34 subjects): 3.61 (1.97; 6.58) mg/L
- Dose Delay/Interruption: More Than One Interruption, % ([4]; human, in vivo): (39.1) %
- Dose Delay/Interruption: No Interruption, % ([4]; human, in vivo): (34.8) %
- Dose Delay/Interruption: Only One Interruption, % ([4]; human, in vivo): (26.1) %
- Dose Reduction: More Than One Dose Reduction, % ([4]; human, in vivo): (39.1) %
- Dose Reduction: No Dose Reduction, % ([4]; human, in vivo): (17.4) %
- Dose Reduction: Only One Dose Reduction, % ([4]; human, in vivo): (43.5) %
- Reasons for Dose Delay/Interruption: Adverse Events, % ([4]; human, in vivo): (52.2) %
- Reasons for Dose Delay/Interruption: Anemia, % ([4]; human, in vivo): (4.3) %
- Reasons for Dose Delay/Interruption: Diarrhea, % ([4]; human, in vivo): (4.3) %
- Reasons for Dose Delay/Interruption: Other adverse events, % ([4]; human, in vivo): (17.4) %
- Reasons for Dose Delay/Interruption: Thrombocytopenia, % ([4]; human, in vivo): (34.8) %
- Reasons for Dose Reduction: Adverse Events, % ([4]; human, in vivo): (73.9) %
- Reasons for Dose Reduction: Anemia, % ([4]; human, in vivo): (17.4) %
- Reasons for Dose Reduction: Diarrhea, % ([4]; human, in vivo): (8.7) %
- Reasons for Dose Reduction: Other adverse events, % ([4]; human, in vivo): (30.4) %
- Reasons for Dose Reduction: Thrombocytopenia, % ([4]; human, in vivo): (47.8) %
- Reasons for Dose Delay/Interruption: Other (non-adverse event), % ([4]; in vivo): (30.4) %
- Reasons for Dose Reduction: Other (non-adverse event), % ([4]; in vivo): (17.4) %
- impact on navitoclax Cmax [5]: no impact
- increase of navitoclax AUC∞ [5]: 1.55 fold
- overcoming resistance to JAK-2 inhibitors [6]: ability to overcome that resistance
- Ki [7]: ≤ 0.001 µM
- cell lines with potent single agent activity [8]: 10 of 22
- EC50 [9]: ≤ 1 µM
- decrease of navitoclax AUC∞ [10]: 41%
- decrease of navitoclax Cmax [10]: 16%
- cell killing activity [1]: cell killing activity
- Navitoclax Emax ([11]; fixed, based on Kaefer et al.): 5
- Navitoclax EC50, estimate [12]: 4.37 µg/mL
- survival of mice with JAK-2-mutated tumors ([13]; combination of navitoclax and a JAK-2 inhibitor vs either agent alone): superior to either agent alone
- growth of tumors ([13]; navitoclax added to a JAK-2 inhibitor): significantly slowing the growth of tumors

- drop in platelet count ([3]; at average ruxolitinib concentration): ~36%
- ruxolitinib dose reductions due to anemia [4, 16]: 18.2%
- ruxolitinib dose reductions due to thrombocytopenia [4, 16]: 86.4%
- subjects whose ruxolitinib dose was reduced to 10 mg BID ([4]; 25 subjects enrolled on ruxolitinib >10 mg BID): 88%
- Ruxolitinib EC50, estimate [12]: 0.0144 µg/mL
Structure (SMILES): N#CC[C@H](C1CCCC1)n1cc(-c2ncnc3[nH]ccc23)cn1 [Ruxolitinib, (R)-3-(4-(7H-pyrrolo[2,3-d]pyrimidin-4-yl)-1H-pyrazol-1-yl)-3-cyclopentylpropanenitrile]
- ruxolitinib factor for relative pseudo baseline platelet count [3]: 1.53 fold
- BaselineFactor (ruxolitinib factor on baseline platelet count), estimate and 95% confidence interval ([3]; pseudo baseline at initiation of ruxolitinib relative to baseline at initiation of navitoclax): 1.53 (1.41; 1.65)
- Ruxolitinib Emax [14]: 0.765 fixed
- Ruxolitinib Emax ([14]; listed as ruxolitinib): 0.765
- patients achieving spleen volume reduction of ≥35% (SVR35) [15]: approximately 40%
- time after start of monotherapy within which SVR35 is typically observed [15]: ≤ 12 weeks
- Ruxolitinib EC50 [11]: 0.0825 µg/mL
- Ruxolitinib EC50 ([11]; listed as ruxolitinib): 0.08248 µg/mL
- Ruxolitinib Emax ([11]; fixed, assumed (JAKAFI approval package)): 1
